Source: PubChem BioAssay AID1919001 (Molecular Pharmacology Branch, DTP, NCI, 2023)
Several values for one entry are separate records, joined by “and”; a condition that tells them apart may be missing. Equal entries are not always repeated. Blank lines part the entries; values can stand above or below the molecule they belong to.

System: 699152-130-R-J1-PDC complex spheroid growth
Experiment: Anticancer human tumor 699152-130-R-J1-PDC patient-derived pancreatic carcinoma cell line growth inhibition [AhR]
Conditions: for viability, T/C: stronger effect = lower value
Outline: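 Complex tumor spheroids co-cultured with HUVEC and human MSC stroma; AhR antagonists tested in combination with standard-of-care and investigational agents. Top concentration at or near clinical Cmax (else 10 microM), half-log dilutions; growth expressed as percent test/control.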

[1] = curve of first compound, second compound 0.1 µM
[2] = curve of first compound, second compound 0.316 µM
[3] = curve of first compound, second compound 1 µM
[4] = curve of first compound, second compound 3.16 µM
[5] = curve of first compound, second compound 10 µM
[6] = second compound 0.1 µM, first compound 0.000949 µM
[7] = second compound 0.1 µM, first compound 0.003 µM
[8] = second compound 0.1 µM, first compound 0.00949 µM
[9] = second compound 0.1 µM, first compound 0.03 µM
[10] = second compound 0.1 µM, first compound 0.0949 µM
[11] = second compound 0.1 µM, first compound 0.3 µM
[12] = second compound 0.316 µM, first compound 0.000949 µM
[13] = second compound 0.316 µM, first compound 0.003 µM
[14] = second compound 0.316 µM, first compound 0.00949 µM
[15] = second compound 0.316 µM, first compound 0.03 µM
[16] = second compound 0.316 µM, first compound 0.0949 µM
[17] = second compound 0.316 µM, first compound 0.3 µM
[18] = second compound 1 µM, first compound 0.000949 µM
[19] = second compound 1 µM, first compound 0.003 µM
[20] = second compound 1 µM, first compound 0.00949 µM
[21] = second compound 1 µM, first compound 0.03 µM
[22] = second compound 1 µM, first compound 0.0949 µM
[23] = second compound 1 µM, first compound 0.3 µM
[24] = second compound 3.16 µM, first compound 0.000949 µM
[25] = second compound 3.16 µM, first compound 0.003 µM
[26] = second compound 3.16 µM, first compound 0.00949 µM
[27] = second compound 3.16 µM, first compound 0.03 µM
[28] = second compound 3.16 µM, first compound 0.0949 µM
[29] = second compound 3.16 µM, first compound 0.3 µM
[30] = second compound 10 µM, first compound 0.000949 µM
[31] = second compound 10 µM, first compound 0.003 µM
[32] = second compound 10 µM, first compound 0.00949 µM
[33] = second compound 10 µM, first compound 0.03 µM
[34] = second compound 10 µM, first compound 0.0949 µM
[35] = second compound 10 µM, first compound 0.3 µM
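Note: compound exposure lasted 7 days after spheroids had grown for 3 days.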

IC50 [1]: > 300 nM | IC50 [2]: > 300 nM | IC50 [3]: > 300 nM | IC50 [4]: > 300 nM | IC50 [5]: > 300 nM
Structure (SMILES): Nc1ncn(C2CC(O)C(CO)S2)c(=O)n1 (configuration not stated) + Cc1ccccc1N=Nc1ccc(NC(=O)c2ccnn2C)c(C)c1
viability, T/C [6]: 99.6% | viability, T/C [7]: 98.9% | viability, T/C [8]: 99% | viability, T/C [9]: 95.5% | viability, T/C [10]: 102% | viability, T/C [11]: 102% | viability, T/C [12]: 101% | viability, T/C [13]: 105% | viability, T/C [14]: 95.3% | viability, T/C [15]: 105% | viability, T/C [16]: 103% | viability, T/C [17]: 90.4% | viability, T/C [18]: 101% | viability, T/C [19]: 101% | viability, T/C [20]: 103% | viability, T/C [21]: 107% | viability, T/C [22]: 103% | viability, T/C [23]: 89.8% | viability, T/C [24]: 90.2% | viability, T/C [25]: 99% | viability, T/C [26]: 104% | viability, T/C [27]: 101% | viability, T/C [28]: 100% | viability, T/C [29]: 95.3% | viability, T/C [30]: 114% | viability, T/C [31]: 116% | viability, T/C [32]: 122% | viability, T/C [33]: 111% | viability, T/C [34]: 114% | viability, T/C [35]: 107%

IC50 [1]: > 300 nM | IC50 [2]: > 300 nM | IC50 [3]: > 300 nM | IC50 [4]: > 300 nM | IC50 [5]: > 300 nM
Structure (SMILES): Nc1ncn(C2CC(O)C(CO)S2)c(=O)n1 (configuration not stated) + CC(CO)NC(=O)c1cc(-c2ccc(Cl)cc2)nn(-c2cnn(C)c2)c1=O
viability, T/C [6]: 98% | viability, T/C [7]: 104% | viability, T/C [8]: 85.7% | viability, T/C [9]: 103% | viability, T/C [10]: 97.8% | viability, T/C [11]: 94.2% | viability, T/C [12]: 89.6% | viability, T/C [13]: 111% | viability, T/C [14]: 105% | viability, T/C [15]: 93.1% | viability, T/C [16]: 93.8% | viability, T/C [17]: 87.1% | viability, T/C [18]: 93.8% | viability, T/C [19]: 101% | viability, T/C [20]: 89.1% | viability, T/C [21]: 95.3% | viability, T/C [22]: 94.1% | viability, T/C [23]: 86.1% | viability, T/C [24]: 86.3% | viability, T/C [25]: 88% | viability, T/C [26]: 91.8% | viability, T/C [27]: 88.9% | viability, T/C [28]: 90.1% | viability, T/C [29]: 85% | viability, T/C [30]: 80.7% | viability, T/C [31]: 91.8% | viability, T/C [32]: 84.6% | viability, T/C [33]: 87.2% | viability, T/C [34]: 87% | viability, T/C [35]: 86%

IC50 [1]: > 3000 nM | IC50 [2]: > 3000 nM | IC50 [3]: > 3000 nM | IC50 [4]: > 3000 nM | IC50 [5]: < 9.49 nM
Structure (SMILES): O=C(C=Cn1cnc(-c2cc(C(F)(F)F)cc(C(F)(F)F)c2)n1)NNc1cnccn1 + Cc1cncc(-c2nc(NCCc3c[nH]c4ccccc34)c3ncn(C(C)C)c3n2)c1
viability, T/C [8]: 97.5% | viability, T/C [9]: 97.4% | viability, T/C [10]: 86.4% | viability, T/C [11]: 81.4% | viability, T/C (second compound 0.1 µM, first compound 0.949 µM): 69.4% | viability, T/C (second compound 0.1 µM, first compound 3 µM): 67.8% | viability, T/C [14]: 83.2% | viability, T/C [15]: 92% | viability, T/C [16]: 89.2% | viability, T/C [17]: 76.3% | viability, T/C (second compound 0.316 µM, first compound 0.949 µM): 76.8% | viability, T/C (second compound 0.316 µM, first compound 3 µM): 74.2% | viability, T/C [20]: 102% | viability, T/C [21]: 111% | viability, T/C [22]: 92.9% | viability, T/C [23]: 87.1% | viability, T/C (second compound 1 µM, first compound 0.949 µM): 79.7% | viability, T/C (second compound 1 µM, first compound 3 µM): 72.2% | viability, T/C [26]: 118% | viability, T/C [27]: 113% | viability, T/C [28]: 93.9% | viability, T/C [29]: 97.2% | viability, T/C (second compound 3.16 µM, first compound 0.949 µM): 76.2% | viability, T/C (second compound 3.16 µM, first compound 3 µM): 70.5% | viability, T/C [32]: 20.1% | viability, T/C [33]: 22.6% | viability, T/C [34]: 25.2% | viability, T/C [35]: 26.4% | viability, T/C (second compound 10 µM, first compound 0.949 µM): 35% | viability, T/C (second compound 10 µM, first compound 3 µM): 32.9%

IC50 [1]: 5.84 nM | IC50 [2]: 5.84 nM | IC50 [3]: 5.39 nM | IC50 [4]: 5.46 nM | IC50 [5]: 5.13 nM
Structure (SMILES): CC(C)CC(NC(=O)C(Cc1ccccc1)NC(=O)c1cnccn1)B(O)O (configuration not stated) + CC(CO)NC(=O)c1cc(-c2ccc(Cl)cc2)nn(-c2cnn(C)c2)c1=O
viability, T/C [6]: 91.3% | viability, T/C [7]: 102% | viability, T/C [8]: 16% | viability, T/C [9]: 1.65% | viability, T/C [10]: 10.5% | viability, T/C [11]: 0.88% | viability, T/C [12]: 92.5% | viability, T/C [13]: 115% | viability, T/C [14]: 10.9% | viability, T/C [15]: 0.58% | viability, T/C [16]: 0.4% | viability, T/C [17]: 0.53% | viability, T/C [18]: 100% | viability, T/C [19]: 86.1% | viability, T/C [20]: 15.2% | viability, T/C [21]: 3.08% | viability, T/C [22]: 0.35% | viability, T/C [23]: 0.5% | viability, T/C [24]: 80.9% | viability, T/C [25]: 92.5% | viability, T/C [26]: 16.2% | viability, T/C [27]: 1.89% | viability, T/C [28]: 1.77% | viability, T/C [29]: 5.12% | viability, T/C [30]: 74.7% | viability, T/C [31]: 90.8% | viability, T/C [32]: 12.6% | viability, T/C [33]: 1.86% | viability, T/C [34]: 0.41% | viability, T/C [35]: 0.56%

IC50 [1]: 214 nM | IC50 [2]: 285 nM | IC50 [3]: 228 nM | IC50 [4]: 154 nM | IC50 [5]: 213 nM
Structure (SMILES): COc1cccc2c1C(=O)c1c(O)c3c(c(O)c1C2=O)CC(O)(C(=O)CO)CC3OC1CC(N)C(O)C(C)O1 (configuration not stated) + Cc1ccccc1N=Nc1ccc(NC(=O)c2ccnn2C)c(C)c1
viability, T/C (second compound 0.1 µM, first compound 0.0316 µM): 65.5% | viability, T/C (second compound 0.1 µM, first compound 0.1 µM): 59.3% | viability, T/C (second compound 0.1 µM, first compound 0.316 µM): 44% | viability, T/C (second compound 0.1 µM, first compound 1 µM): 25.2% | viability, T/C (second compound 0.1 µM, first compound 3.16 µM): 4.33% | viability, T/C (second compound 0.1 µM, first compound 10 µM): 8.93% | viability, T/C (second compound 0.316 µM, first compound 0.0316 µM): 58.8% | viability, T/C (second compound 0.316 µM, first compound 0.1 µM): 58.8% | viability, T/C (second compound 0.316 µM, first compound 0.316 µM): 45.8% | viability, T/C (second compound 0.316 µM, first compound 1 µM): 30.2% | viability, T/C (second compound 0.316 µM, first compound 3.16 µM): 2.54% | viability, T/C (second compound 0.316 µM, first compound 10 µM): 9.1% | viability, T/C (second compound 1 µM, first compound 0.0316 µM): 65.5% | viability, T/C (second compound 1 µM, first compound 0.1 µM): 62.9% | viability, T/C (second compound 1 µM, first compound 0.316 µM): 43% | viability, T/C (second compound 1 µM, first compound 1 µM): 26.5% | viability, T/C (second compound 1 µM, first compound 3.16 µM): 4.29% | viability, T/C (second compound 1 µM, first compound 10 µM): 6.64% | viability, T/C (second compound 3.16 µM, first compound 0.0316 µM): 62.1% | viability, T/C (second compound 3.16 µM, first compound 0.1 µM): 53.2% | viability, T/C (second compound 3.16 µM, first compound 0.316 µM): 40.9% | viability, T/C (second compound 3.16 µM, first compound 1 µM): 26.1% | viability, T/C (second compound 3.16 µM, first compound 3.16 µM): 2.91% | viability, T/C (second compound 3.16 µM, first compound 10 µM): 8.18% | viability, T/C (second compound 10 µM, first compound 0.0316 µM): 74.4% | viability, T/C (second compound 10 µM, first compound 0.1 µM): 63.1% | viability, T/C (second compound 10 µM, first compound 0.316 µM): 42.6% | viability, T/C (second compound 10 µM, first compound 1 µM): 22.7% | viability, T/C (second compound 10 µM, first compound 3.16 µM): 4.35% | viability, T/C (second compound 10 µM, first compound 10 µM): 10.2%

IC50 (curve of compound): > 10000 nM and 4090 nM
Structure (SMILES): COc1cc(C2c3cc4c(cc3C(OC3OC5COC(C)OC5C(O)C3O)C3COC(=O)C23)OCO4)cc(OC)c1O (configuration not stated)
viability, T/C (compound 0.0316 µM): 97.3% and 94.8% and 92.4% | viability, T/C (compound 0.1 µM): 94.7% and 101% and 86.3% | viability, T/C (compound 0.316 µM): 76.1% and 83.2% and 73.8% | viability, T/C (compound 1 µM): 66.5% and 70.9% and 62.2% | viability, T/C (compound 3.16 µM): 68.3% and 64.6% and 51.9% | viability, T/C (compound 10 µM): 53.4% and 53.8% and 44.4%
